The text below walks through data of patent publication US20080269267A1, “KINASE INHIBITORS USEFUL FOR THE TREATMENT OF MYLEOPROLIFIC DISEASES AND OTHER PROLIFERATIVE DISEASES” (Deciphera Pharmaceuticals, LLC, priority 2007, published 2008).

pIC50: −log10 of the molar value.

Assay [1] concerns the target T1, C-Met kinase (SEQ ID NO:10) (Homo sapiens, UniProt P08581).
T1 construct: purchased Invitrogen PV3143
As to the kind of experiment: C-Met kinase assay (pyruvate kinase/lactate dehydrogenase coupled). As to conditions: 0.5 h preincubation at 22° C., ATP 100 μM; read-out: c-Met Enzyme Assay, biochemical IC50. On the procedure:
C-Met Kinase (SEQ ID NO:10) Assay
Activity of C-Met kinase (SEQ ID NO:10) was determined by following the production of ADP from the kinase reaction through coupling with the pyruvate kinase/lactate dehydrogenase system (e.g., Schindler, et al. Science (2000) 289, 1938-1942). In this assay, the oxidation of NADH (thus the decrease at A340 nm) was continuously monitored spectrophometrically. The reaction mixture (100 μl) contained C-Met (c-Met residues; 956-1390, from Invitrogen, catalogue #PV3143, 6 nM), polyE4Y (1 mg/ml), MgCl2 (10 mM), pyruvate kinase (4 units), lactate dehydrogenase (0.7 units), phosphoenol pyruvate (1 mM), and NADH (0.28 mM) in 90 mM Tris buffer containing 0.25 mM DTT, 0.2% octyl-glucoside and 1% DMSO, pH 7.5. Test compounds were incubated with C-Met (SEQ ID NO:10) and other reaction reagents at 22° C. for 0.5 h before ATP (100 μM) was added to start the reaction. The absorption at 340 n=was monitored continuously for 2 hours at 30° C. on Polarstar Optima plate reader (BMG). The reaction rate was calculated using the 1.0 to 2.0 h time frame. Percent inhibition was obtained by comparison of reaction rate with that of a control (i.e. with no test compound). IC50 values were calculated from a series of percent inhibition values determined at a range of inhibitor concentrations using software routines as implemented in the GraphPad Prism software package.

The target in assay [2] is T2, BaF3 cells transfected with wild type p210 BCR-Abl (Homo sapiens, UniProt P00519).
T2 construct: fused on or other part: P11274 (Breakpoint cluster region protein)
As to the kind of experiment: Ba/F3 p210 whole cell proliferation assay (Cell Titer Blue, 72 hours). It is filed as cell-based. As to conditions: 72 hours incubation; read-out: Ba/F3 p210 whole cell proliferation assay, antiproliferation IC50. On the procedure:
BaF3 cells (parental or transfected with the following: wild type p210 BCR-Abl and T315I p210 BCR-Abl was obtained from Professor Richard Van Etten (New England Medical Center, Boston, Mass.). Briefly, cells were grown in RPMI 1640 supplemented with 10% characterized fetal bovine serum (HyClone, Logan, Utah) at 37 degrees Celsius, 5% CO2, 95% humidity. Cells were allowed to expand until reaching 80% saturation at which point they were subcultured or harvested for assay use.
A serial dilution of test compound was dispensed into a 96 well black clear bottom plate (Corning, Corning, N.Y.). For each cell line, three thousand cells were added per well in complete growth medium. Plates were incubated for 72 hours at 37 degrees Celsius, 5% CO2, 95% humidity. At the end of the incubation period Cell Titer Blue (Promega, Madison, Wis.) was added to each well and an additional 4.5 hour incubation at 37 degrees Celsius, 5% CO2, 95% humidity was performed. Plates were then read on a BMG Fluostar Optima (BMG, Durham, N.C.) using an excitation of 544 nm and an emission of 612 nm. Data was analyzed using Prism software (Graphpad, San Diego, Calif.) to calculate IC50's.
Background: Alamar Blue is a resazurin reagent that responds to reducing activity.

The next assay deals with T3, Abl kinase (SEQ ID NO:1) (Homo sapiens, UniProt P00519).
T3 construct: purchased deCode Genetics
T3 sequence (P00519 with tags, fused parts or gaps): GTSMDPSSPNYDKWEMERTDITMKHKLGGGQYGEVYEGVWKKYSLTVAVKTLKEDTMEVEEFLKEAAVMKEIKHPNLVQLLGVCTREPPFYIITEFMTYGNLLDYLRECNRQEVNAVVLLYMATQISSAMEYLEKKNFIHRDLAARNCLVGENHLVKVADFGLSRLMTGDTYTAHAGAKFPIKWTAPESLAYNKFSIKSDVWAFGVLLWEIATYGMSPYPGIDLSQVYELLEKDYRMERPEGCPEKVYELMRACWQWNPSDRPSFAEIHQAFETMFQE
Nature of the assay: Abl kinase assay (pyruvate kinase/lactate dehydrogenase coupled, ADP production). The note with it: 2 h preincubation at 30° C., ATP 500 μM; read-out: Abl Enzyme Assay, biochemical IC50. On the procedure: Abl Kinase (SEQ ID NO:1) Assay
Activity of Abl kinase (SEQ ID NO:1) was determined by following the production of ADP from the kinase reaction through coupling with the pyruvate kinase/lactate dehydrogenase system (e.g., Schindler, et al. Science (2000) 289, 1938-1942). In this assay, the oxidation of NADH (thus the decrease at A340nm) was continuously monitored spectrophometrically. The reaction mixture (100 μl) contained Abl kinase (1 nM. Abl from deCode Genetics), peptide substrate (EAIYAAPFAKKK. 0.2 mM), MgCl2 (10 mM), pyruvate kinase (4 units), lactate dehydrogenase (0.7 units), phosphoenol pyruvate (1 mM), and NADH (0.28 mM) in 90 mM Tris buffer containing 0.2% octyl-glucoside and 3.5% DMSO, pH 7.5. Test compounds were incubated with Abl (SEQ ID NO:1) and other reaction reagents at 30° C. for 2 h before ATP (500 μM) was added to start the reaction. The absorption at 340 nm was monitored continuously for 2 hours at 30° C. on Polarstar Optima plate reader (BMG). The reaction rate was calculated using the 1.0 to 2.0 h time frame. Percent inhibition was obtained by comparison of reaction rate with that of a control (i.e. with no test compound). IC50 values were calculated from a series of percent inhibition values determined at a range of inhibitor concentrations using software routines as implemented in the GraphPad Prism software package.

T1 sequence (P08581 with tags, fused parts or gaps): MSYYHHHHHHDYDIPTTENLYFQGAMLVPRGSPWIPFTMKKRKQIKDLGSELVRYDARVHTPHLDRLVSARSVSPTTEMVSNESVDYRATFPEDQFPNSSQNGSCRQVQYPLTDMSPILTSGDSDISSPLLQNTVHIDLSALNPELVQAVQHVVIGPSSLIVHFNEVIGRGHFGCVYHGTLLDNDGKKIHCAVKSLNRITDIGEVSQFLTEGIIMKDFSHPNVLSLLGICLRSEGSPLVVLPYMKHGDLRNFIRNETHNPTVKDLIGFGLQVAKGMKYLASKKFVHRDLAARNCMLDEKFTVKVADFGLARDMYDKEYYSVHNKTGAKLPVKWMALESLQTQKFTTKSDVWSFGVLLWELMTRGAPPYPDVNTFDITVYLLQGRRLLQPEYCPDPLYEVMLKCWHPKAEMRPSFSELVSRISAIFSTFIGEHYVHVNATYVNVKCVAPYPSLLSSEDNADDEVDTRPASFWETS
T2 sequence (P00519 whole entry, change not shown, the tested form may be a part): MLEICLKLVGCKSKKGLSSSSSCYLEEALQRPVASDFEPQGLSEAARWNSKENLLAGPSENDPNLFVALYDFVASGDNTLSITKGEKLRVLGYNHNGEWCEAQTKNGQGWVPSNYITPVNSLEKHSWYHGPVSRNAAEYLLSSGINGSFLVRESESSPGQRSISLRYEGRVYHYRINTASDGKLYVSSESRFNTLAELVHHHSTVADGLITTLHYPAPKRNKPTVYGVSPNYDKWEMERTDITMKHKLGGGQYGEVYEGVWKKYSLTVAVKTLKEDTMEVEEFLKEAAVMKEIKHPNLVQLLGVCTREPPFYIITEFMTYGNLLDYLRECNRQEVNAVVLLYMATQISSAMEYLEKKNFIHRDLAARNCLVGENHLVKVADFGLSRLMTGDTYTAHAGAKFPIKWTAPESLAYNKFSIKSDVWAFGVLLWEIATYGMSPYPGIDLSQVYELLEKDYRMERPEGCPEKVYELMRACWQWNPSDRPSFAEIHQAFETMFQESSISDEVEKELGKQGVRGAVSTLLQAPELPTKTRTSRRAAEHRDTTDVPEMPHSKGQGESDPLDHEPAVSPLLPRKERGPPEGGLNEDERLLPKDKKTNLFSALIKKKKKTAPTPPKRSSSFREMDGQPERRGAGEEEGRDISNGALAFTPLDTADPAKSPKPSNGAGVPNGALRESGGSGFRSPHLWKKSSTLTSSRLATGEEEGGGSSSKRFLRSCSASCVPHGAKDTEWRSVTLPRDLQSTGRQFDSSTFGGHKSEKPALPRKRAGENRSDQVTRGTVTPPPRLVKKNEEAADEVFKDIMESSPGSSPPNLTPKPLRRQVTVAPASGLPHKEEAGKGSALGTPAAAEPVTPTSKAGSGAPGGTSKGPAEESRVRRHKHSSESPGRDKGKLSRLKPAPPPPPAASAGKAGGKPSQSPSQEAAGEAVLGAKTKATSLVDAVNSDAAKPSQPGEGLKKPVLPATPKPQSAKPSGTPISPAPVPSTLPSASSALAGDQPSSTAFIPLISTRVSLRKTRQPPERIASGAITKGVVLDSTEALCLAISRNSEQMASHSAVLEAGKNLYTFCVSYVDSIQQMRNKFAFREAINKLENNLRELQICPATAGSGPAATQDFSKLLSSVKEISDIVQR

With `CCc1cc(NC(=O)Nc2ccc(Oc3ccnc(-c4cnn(C)c4)c3)cc2F)n(-c2ccc(CO)cc2)n1` [Example 19, 1-(3-ethyl-1-(4-(hydroxymethyl)phenyl)-1H-pyrazol-5-yl)-3-(2-fluoro-4-(2-(1-methyl-1H-pyrazol-4-yl)pyridin-4-yloxy)phenyl)urea], the pIC50 (as a rule, the IC50 on a negative log10 scale, so that one unit is a factor of ten) in assay [1] was more than 6.00; on Abl kinase (SEQ ID NO:1), more than 7.00. Moreover, the GI50 in assay [2] was less than 100 nM.

For the compound `CC(C)n1cc(NC(=O)Nc2ccc(Oc3ccnc(-c4cnn(C)c4)c3)cc2F)c(-c2ccccc2)n1` [Example 21, 1-(2-fluoro-4-(2-(1-methyl-1H-pyrazol-4-yl)pyridin-4-yloxy)phenyl)-3-(1-isopropyl-3-phenyl-1H-pyrazol-4-yl)urea], the pIC50 is more than 6.00 in assay [1] and more than 7.00 on Abl kinase (SEQ ID NO:1). Moreover, the GI50 in assay [2] was less than 100 nM.

`CC(C)c1cc(NC(=O)Nc2ccc(Oc3ccnc(-c4cnn(C)c4)c3)cc2F)n(-c2cccc(F)c2)n1` [Example 24, 1-(2-fluoro-4-(2-(1-methyl-1H-pyrazol-4-yl)pyridin-4-yloxy)phenyl)-3-(1-(3-fluorophenyl)-3-isopropyl-1H-pyrazol-5-yl)urea]: the negative-log IC50 (pIC50) (in assay [1]; at Abl kinase (SEQ ID NO:1)) was more than 7.00 in each case. The GI50 in assay [2] is less than 100 nM.

With `Cn1cc(-c2cc(Oc3ccc(NC(=O)Nc4cc(-c5ccccc5F)nn4C)c(F)c3F)ccn2)cn1` [Example 25, 1-(2,3-difluoro-4-(2-(1-methyl-1H-pyrazol-4-yl)pyridin-4-yloxy)phenyl)-3-(3-(2-fluorophenyl)-1-methyl-1H-pyrazol-5-yl)urea], the pIC50 in assay [1] is more than 6.00; at Abl kinase (SEQ ID NO:1), more than 7.00. Moreover, the GI50 in assay [2] was less than 1000 nM.
